Experimental data as given in patent US12258327B2, “5-membered heteroaryl-containing aminopyridine compounds as EGFR inhibitors” (YUHAN CORPORATION, priority 2021, dated 2025).
Where two headings read alike, the source gives them in different places.

Experiments:
[1] = target: EGFR L858R/C797S (Homo sapiens, UniProt P00533, C797S/L858R); test: Biochemical EGFR kinase assay (Lance Ultra TR-FRET), double mutant L858R/C797S
Summary of the method: (§1)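 Step 1: compound in kinase buffer, 0.003–10 μM. Step 2: kinase reaction 1 h at room temperature. Step 4: TR-FRET read at 615/665 nm; IC50 calculated.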

[2] = target: EGFR wildtype (WT) (Homo sapiens, UniProt P00533); test: Biochemical EGFR kinase assay (Lance Ultra TR-FRET), wildtype
Chain of EGFR wildtype (WT) (P00533 25-1210): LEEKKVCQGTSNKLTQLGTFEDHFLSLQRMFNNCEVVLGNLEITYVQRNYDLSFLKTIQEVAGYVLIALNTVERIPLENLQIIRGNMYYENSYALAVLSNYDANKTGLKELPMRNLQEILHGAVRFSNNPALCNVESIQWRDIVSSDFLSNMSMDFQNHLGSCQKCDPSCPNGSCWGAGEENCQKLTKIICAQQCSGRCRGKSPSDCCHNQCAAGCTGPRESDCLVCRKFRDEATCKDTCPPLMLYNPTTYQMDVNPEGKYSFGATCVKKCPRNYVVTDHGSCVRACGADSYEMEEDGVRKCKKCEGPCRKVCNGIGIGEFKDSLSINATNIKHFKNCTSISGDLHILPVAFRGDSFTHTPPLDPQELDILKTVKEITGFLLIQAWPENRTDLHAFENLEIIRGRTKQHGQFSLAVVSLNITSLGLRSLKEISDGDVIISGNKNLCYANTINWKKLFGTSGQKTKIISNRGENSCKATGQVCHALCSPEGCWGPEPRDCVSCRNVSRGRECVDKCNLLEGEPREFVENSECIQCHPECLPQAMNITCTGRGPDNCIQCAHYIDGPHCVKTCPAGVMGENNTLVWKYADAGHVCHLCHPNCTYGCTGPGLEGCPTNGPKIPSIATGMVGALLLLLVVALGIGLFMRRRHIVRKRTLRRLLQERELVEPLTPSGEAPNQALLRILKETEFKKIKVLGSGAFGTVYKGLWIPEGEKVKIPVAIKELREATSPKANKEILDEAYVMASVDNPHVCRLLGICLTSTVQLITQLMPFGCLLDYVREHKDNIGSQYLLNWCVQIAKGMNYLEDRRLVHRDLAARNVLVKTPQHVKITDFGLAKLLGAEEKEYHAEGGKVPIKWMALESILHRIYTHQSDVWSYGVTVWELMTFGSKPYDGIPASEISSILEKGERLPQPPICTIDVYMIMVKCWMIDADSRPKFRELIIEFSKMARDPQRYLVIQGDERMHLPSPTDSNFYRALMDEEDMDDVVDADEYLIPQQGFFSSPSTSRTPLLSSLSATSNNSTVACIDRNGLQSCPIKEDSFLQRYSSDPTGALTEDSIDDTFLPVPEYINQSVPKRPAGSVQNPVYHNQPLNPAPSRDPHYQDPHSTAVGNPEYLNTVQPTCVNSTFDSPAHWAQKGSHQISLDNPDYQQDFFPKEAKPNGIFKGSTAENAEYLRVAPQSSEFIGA
Summary of the method: as §1

[3] = target: EGFR L858R/T790M/C797S (Homo sapiens, UniProt P00533, C797S/L858R/T790M); test: Biochemical EGFR kinase assay (Lance Ultra TR-FRET), triple mutant L858R/T790M/C797S
Chain of EGFR L858R/T790M/C797S (P00533 25-1210 T790M/C797S/L858R): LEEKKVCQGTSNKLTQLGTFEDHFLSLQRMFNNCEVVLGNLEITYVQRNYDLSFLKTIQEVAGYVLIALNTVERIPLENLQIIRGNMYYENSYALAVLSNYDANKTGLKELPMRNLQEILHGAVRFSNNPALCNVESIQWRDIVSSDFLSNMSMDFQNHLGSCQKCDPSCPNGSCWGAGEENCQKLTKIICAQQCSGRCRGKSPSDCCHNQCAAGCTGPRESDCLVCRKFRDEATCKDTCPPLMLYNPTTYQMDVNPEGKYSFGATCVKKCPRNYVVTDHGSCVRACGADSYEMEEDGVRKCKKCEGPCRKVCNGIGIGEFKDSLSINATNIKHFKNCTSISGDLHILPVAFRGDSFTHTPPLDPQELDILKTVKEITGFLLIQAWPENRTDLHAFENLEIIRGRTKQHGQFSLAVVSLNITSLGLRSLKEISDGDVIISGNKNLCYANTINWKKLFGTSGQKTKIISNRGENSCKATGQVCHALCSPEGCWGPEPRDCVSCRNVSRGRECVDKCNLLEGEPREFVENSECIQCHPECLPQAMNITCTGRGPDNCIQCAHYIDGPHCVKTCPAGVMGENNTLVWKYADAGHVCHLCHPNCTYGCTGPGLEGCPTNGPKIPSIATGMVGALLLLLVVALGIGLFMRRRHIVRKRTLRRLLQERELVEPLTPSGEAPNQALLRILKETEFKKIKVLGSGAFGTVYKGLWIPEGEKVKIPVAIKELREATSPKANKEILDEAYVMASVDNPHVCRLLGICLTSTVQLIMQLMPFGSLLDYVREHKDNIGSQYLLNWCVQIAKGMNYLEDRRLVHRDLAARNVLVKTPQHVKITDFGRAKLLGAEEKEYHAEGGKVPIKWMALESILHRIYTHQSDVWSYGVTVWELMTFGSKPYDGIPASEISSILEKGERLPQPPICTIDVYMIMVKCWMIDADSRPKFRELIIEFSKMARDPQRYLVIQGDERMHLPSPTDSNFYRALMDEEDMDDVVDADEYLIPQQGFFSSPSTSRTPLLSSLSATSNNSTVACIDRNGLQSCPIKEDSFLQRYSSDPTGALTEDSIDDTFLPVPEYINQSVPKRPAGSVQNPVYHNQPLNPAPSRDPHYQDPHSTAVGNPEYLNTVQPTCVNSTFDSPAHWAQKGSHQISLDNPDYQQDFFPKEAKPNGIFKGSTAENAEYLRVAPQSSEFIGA
Summary of the method: as §1

[4] = target: EGFR del19/T790M/C797S (Homo sapiens, UniProt P00533, C797S/DEL746-750/T790M); test: Biochemical EGFR kinase assay (Lance Ultra TR-FRET), triple mutant del19/T790M/C797S
Chain of EGFR del19/T790M/C797S (P00533 with tags, fused parts or gaps DEL746-750/T790M/C797S): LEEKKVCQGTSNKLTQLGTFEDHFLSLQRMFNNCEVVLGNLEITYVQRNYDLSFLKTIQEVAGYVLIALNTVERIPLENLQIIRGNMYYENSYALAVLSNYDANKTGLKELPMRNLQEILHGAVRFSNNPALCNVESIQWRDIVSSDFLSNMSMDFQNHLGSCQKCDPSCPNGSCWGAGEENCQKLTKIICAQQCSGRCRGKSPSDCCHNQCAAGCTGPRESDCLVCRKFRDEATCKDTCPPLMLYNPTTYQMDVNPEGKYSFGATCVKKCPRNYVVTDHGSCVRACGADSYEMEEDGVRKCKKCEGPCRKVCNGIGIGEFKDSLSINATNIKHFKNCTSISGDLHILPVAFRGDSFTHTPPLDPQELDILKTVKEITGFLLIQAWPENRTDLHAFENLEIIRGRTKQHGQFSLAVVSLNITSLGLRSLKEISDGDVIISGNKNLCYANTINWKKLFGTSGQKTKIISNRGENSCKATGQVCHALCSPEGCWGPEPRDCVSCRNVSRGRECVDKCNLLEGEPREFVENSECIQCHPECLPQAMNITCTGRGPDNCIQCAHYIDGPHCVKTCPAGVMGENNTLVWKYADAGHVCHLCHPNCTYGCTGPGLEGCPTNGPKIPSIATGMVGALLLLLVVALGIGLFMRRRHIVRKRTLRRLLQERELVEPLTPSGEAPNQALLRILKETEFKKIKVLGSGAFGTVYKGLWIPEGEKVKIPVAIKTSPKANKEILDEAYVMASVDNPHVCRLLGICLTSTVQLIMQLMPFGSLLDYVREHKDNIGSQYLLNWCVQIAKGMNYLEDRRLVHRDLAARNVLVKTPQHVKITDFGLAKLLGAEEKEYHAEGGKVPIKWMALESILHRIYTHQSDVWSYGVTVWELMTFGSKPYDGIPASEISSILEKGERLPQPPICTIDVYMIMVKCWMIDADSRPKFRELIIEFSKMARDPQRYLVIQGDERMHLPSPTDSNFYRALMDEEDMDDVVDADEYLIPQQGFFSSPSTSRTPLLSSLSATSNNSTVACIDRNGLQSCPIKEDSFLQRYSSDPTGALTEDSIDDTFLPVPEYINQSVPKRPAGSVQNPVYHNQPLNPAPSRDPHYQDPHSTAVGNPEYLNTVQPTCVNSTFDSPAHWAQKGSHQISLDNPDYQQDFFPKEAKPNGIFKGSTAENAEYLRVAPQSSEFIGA
Summary of the method: as §1

[5] = target: EGFR del19/C797S (Homo sapiens, UniProt P00533, C797S/DEL746-750); test: Biochemical EGFR kinase assay (Lance Ultra TR-FRET), double mutant del19/C797S
Chain of EGFR del19/C797S (P00533 with tags, fused parts or gaps DEL746-750/C797S): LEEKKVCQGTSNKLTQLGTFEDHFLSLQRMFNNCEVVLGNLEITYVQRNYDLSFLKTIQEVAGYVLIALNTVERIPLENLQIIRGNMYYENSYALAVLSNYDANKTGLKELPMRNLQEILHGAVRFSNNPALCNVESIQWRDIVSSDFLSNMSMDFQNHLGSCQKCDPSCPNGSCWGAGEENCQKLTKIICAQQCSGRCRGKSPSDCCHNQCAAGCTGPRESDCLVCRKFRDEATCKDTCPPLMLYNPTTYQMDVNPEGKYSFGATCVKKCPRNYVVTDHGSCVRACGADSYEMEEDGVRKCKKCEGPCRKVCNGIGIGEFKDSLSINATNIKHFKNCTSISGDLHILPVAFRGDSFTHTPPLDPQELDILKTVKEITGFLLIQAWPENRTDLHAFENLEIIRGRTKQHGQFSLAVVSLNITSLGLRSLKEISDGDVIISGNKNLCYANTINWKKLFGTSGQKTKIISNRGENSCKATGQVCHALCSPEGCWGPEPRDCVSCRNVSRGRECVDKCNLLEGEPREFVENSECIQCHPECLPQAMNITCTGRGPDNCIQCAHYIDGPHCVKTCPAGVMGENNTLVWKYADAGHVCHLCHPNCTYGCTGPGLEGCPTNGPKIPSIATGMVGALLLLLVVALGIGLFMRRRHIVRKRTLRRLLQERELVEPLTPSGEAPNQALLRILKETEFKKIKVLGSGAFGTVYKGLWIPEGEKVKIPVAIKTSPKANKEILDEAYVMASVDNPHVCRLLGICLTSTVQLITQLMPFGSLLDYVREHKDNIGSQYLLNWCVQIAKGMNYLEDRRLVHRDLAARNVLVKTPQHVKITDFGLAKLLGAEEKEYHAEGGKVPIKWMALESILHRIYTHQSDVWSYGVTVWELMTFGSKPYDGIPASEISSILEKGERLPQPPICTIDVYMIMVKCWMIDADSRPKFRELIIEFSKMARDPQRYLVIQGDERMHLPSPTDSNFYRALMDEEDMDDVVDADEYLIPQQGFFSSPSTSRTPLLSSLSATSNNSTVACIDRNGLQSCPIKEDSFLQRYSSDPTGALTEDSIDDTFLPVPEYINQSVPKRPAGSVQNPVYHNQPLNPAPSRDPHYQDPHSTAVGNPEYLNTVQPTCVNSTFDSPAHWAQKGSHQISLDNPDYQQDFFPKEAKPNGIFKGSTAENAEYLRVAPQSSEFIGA
Summary of the method: as §1

[6] = Km ATP, read-out: IC50 L858R/C797S (nM) Km ATP
[7] = Km ATP, read-out: IC50 WT (nM) Km ATP
[8] = Km ATP, read-out: IC50 L858R/T790M/C797S (nM) Km ATP
[9] = Km ATP, read-out: IC50 del19/T790M/C797S (nM) Km ATP
[10] = Km ATP, read-out: IC50 del19/C797S (nM) Km ATP
[11] = IC50 L858R/C797S (nM) 100 μM ATP, 100 μM ATP
[12] = IC50 WT (nM) 100 μM ATP, 100 μM ATP
[13] = IC50 L858R/T790M/C797S (nM) 100 μM ATP, 100 μM ATP
[14] = IC50 del19/T790M/C797S (nM) 100 μM ATP, 100 μM ATP
[15] = IC50 del19/C797S (nM) 100 μM ATP, 100 μM ATP

| Structure (SMILES) | IC50 [1, 6] [nM] | IC50 [2, 7] [nM] | IC50 [3, 8] [nM] | IC50 [4, 9] [nM] | IC50 [5, 10] [nM] | IC50 [1, 11] [nM] | IC50 [2, 12] [nM] | IC50 [3, 13] [nM] | IC50 [4, 14] [nM] | IC50 [5, 15] [nM] |
| --- | --- | --- | --- | --- | --- | --- | --- | --- | --- | --- |
| O=S(=O)(C1CC1)n1cc(-c2nccc(Nc3cc(NC4CCC(F)(F)C4)c(-c4ccn(C(F)F)n4)cn3)n2)cn1 (stereo not shown) [Example 179, N^2-(2-(1-(Cyclopropylsulfonyl)-1H-pyrazol-4-yl)pyrimidin-4-yl)-N^4-(3,3-difluorocyclopentyl)-5-(1-(difluoromethyl)-1H-pyrazol-3-yl)pyridine-2,4-diamine] | 7.4 | 264 | 2.1 | 3.1 | 168 | – | – | – | – | – |
| C=CCCS(=O)(=O)n1cc(-c2nccc(Nc3cc(N[C@H]4CC[C@@](C)(O)CC4)c(-c4ccn(C(F)F)n4)cn3)n2)cn1 [Example 117, (1s,4s)-4-((2-((2-(1-(But-3-en-1-ylsulfonyl)-1H-pyrazol-4-yl)pyrimidin-4-yl)amino)-5-(1-(difluoromethyl)-1H-pyrazol-3-yl)pyridin-4-yl)amino)-1-methylcyclohexan-1-ol] | 0.2 | 1.6 | 0.5 | 0.5 | 0.8 | – | – | – | – | – |
| Cn1ccc(-c2cnc(Nc3ccnc(-c4cnn(S(=O)(=O)C5CC5)c4)n3)cc2N[C@H]2CC[C@@H](O)CC2)n1 [Example 79, (1s,4s)-4-((2-((2-(1-(Cyclopropylsulfonyl)-1H-pyrazol-4-yl)pyrimidin-4-yl)amino)-5-(1-methyl-1H-pyrazol-3-yl)pyridin-4-yl)amino)cyclohexan-1-ol] | – | – | – | – | – | 0.8 | 58.1 | 0.5 | 0.5 | 0.7 |
| C[C@]1(O)CC[C@@H](Nc2cc(Nc3ccnc(-c4cnn(CC5CC5)c4)n3)ncc2-c2ccn(C(F)F)n2)CC1 [Example 141, (1s,4s)-4-((2-((2-(1-(Cyclopropylmethyl)-1H-pyrazol-4-yl)pyrimidin-4-yl)amino)-5-(1-(difluoromethyl)-1H-pyrazol-3-yl)pyridin-4-yl)amino)-1-methylcyclohexan-1-ol] | – | – | – | – | – | 198 | > 10000 | 3.2 | 15.8 | 111 |
| CN(C)CC[C@H]1CC[C@@H](Nc2cc(Nc3ccnc(-c4cnn(S(=O)(=O)C5CC5)c4)n3)ncc2-c2ccn(CC(F)F)n2)CC1 [Example 251, N^2-(2-(1-(Cyclopropylsulfonyl)-1H-pyrazol-4-yl)pyrimidin-4-yl)-5-(1-(2,2-difluoroethyl)-1H-pyrazol-3-yl)-N^4-((1s,4s)-4-(2-(dimethylamino)ethyl)cyclohexyl)pyridine-2,4-diamine] | 0.1 | 0.3 | 0.2 | 0.7 | 0.4 | – | – | – | – | – |
| Cc1cc(-c2cnc(Nc3ccnc(-c4cnn(S(=O)(=O)C5CC5)c4)n3)cc2N[C@H]2CC[C@@H](C(C)(C)O)CC2)nn1C [Example 281, 2-((1s,4s)-4-((2-((2-(1-(Cyclopropylsulfonyl)-1H-pyrazol-4-yl)pyrimidin-4-yl)amino)-5-(1,5-dimethyl-1H-pyrazol-3-yl)pyridin-4-yl)amino)cyclohexyl)propan-2-ol] | 2.8 | 2.9 | 0.6 | 1.8 | 0.9 | 40.4 | 806 | 2.3 | 2.8 | 1.1 |
| CN(C)CC1(C)CCC(Nc2cc(Nc3ccnc(-c4cnn(S(=O)(=O)C5CC5)c4)n3)ncc2-c2ccn(CC(F)(F)F)n2)CC1 (stereo not shown) [Example 267, N^2-(2-(1-(Cyclopropylsulfonyl)-1H-pyrazol-4-yl)pyrimidin-4-yl)-N^4-(4-((dimethylamino)methyl)-4-methylcyclohexyl)-5-(1-(2,2,2-trifluoroethyl)-1H-pyrazol-3-yl)pyridine-2,4-diamine] | 25.4 | 28.7 | 0.5 | 0.2 | 6.7 | 576 | 8270 | 0.1 | 0.1 | 8.8 |
| O=S(=O)(C1CC1)n1cc(-c2nccc(Nc3cc(NC[C@H]4CC[C@H](CO)CC4)c(-c4ccn(C(F)F)n4)cn3)n2)cn1 [Example 22, ((1r,4r)-4-(((2-((2-(1-(Cyclopropylsulfonyl)-1H-pyrazol-4-yl)pyrimidin-4-yl)amino)-5-(1-(difluoromethyl)-1H-pyrazol-3-yl)pyridin-4-yl)amino)methyl)cyclohexyl)methanol] | 4.4 | 22.4 | 0.4 | 0.9 | – | 21.5 | > 10000 | 1.2 | 1.1 | 2.1 |
| O=S(=O)(C1CC1)n1cc(-c2nccc(Nc3cc(OC4CCC(O)C4)c(-c4cnn(C(F)F)c4)cn3)n2)cn1 (stereo not shown) [Example 72, 3-((2-((2-(1-(Cyclopropylsulfonyl)-1H-pyrazol-4-yl)pyrimidin-4-yl)amino)-5-(1-(difluoromethyl)-1H-pyrazol-4-yl)pyridin-4-yl)oxy)cyclopentan-1-ol] | 9.4 | 199 | 0.8 | 0.9 | 31.4 | 189 | > 10000 | 5.8 | 0.8 | 21.8 |
| Cn1ccc(-c2cnc(Nc3ccnc(-c4cnn(S(=O)(=O)C5CC5)c4)n3)cc2NCC2CCC(C(F)F)CC2)n1 (stereo not shown) [Example 152, N^2-(2-(1-(Cyclopropylsulfonyl)-1H-pyrazol-4-yl)pyrimidin-4-yl)-N^4-((4-(difluoromethyl)cyclohexyl)methyl)-5-(1-methyl-1H-pyrazol-3-yl)pyridine-2,4-diamine] | 16.1 | 85.1 | 3.5 | 8.5 | 118 | – | – | – | – | – |
| O=S(=O)(C1CC1)n1cc(-c2nccc(Nc3cc(NC4CCC(F)(CO)CC4)c(-c4cc5n(n4)CCCC5)cn3)n2)cn1 (stereo not shown) [Example 276, (4-((2-((2-(1-(Cyclopropylsulfonyl)-1H-pyrazol-4-yl)pyrimidin-4-yl)amino)-5-(4,5,6,7-tetrahydropyrazolo[1,5-a]pyridin-2-yl)pyridin-4-yl)amino)-1-fluorocyclohexyl)methanol] | 1.9 | 14.9 | 0.4 | 0.8 | 1.2 | 121 | > 10000 | 0.9 | 1.1 | 1.4 |
| C[C@]1(O)CC[C@@H](Nc2cc(Nc3ccnc(-c4cnn(CC(F)(F)F)c4)n3)ncc2-c2ccn(C(F)F)n2)CC1 [Example 137, (1s,4s)-4-((5-(1-(Difluoromethyl)-1H-pyrazol-3-yl)-2-((2-(1-(2,2,2-trifluoroethyl)-1H-pyrazol-4-yl)pyrimidin-4-yl)amino)pyridin-4-yl)amino)-1-methylcyclohexan-1-ol] | 35.9 | 1780 | 0.2 | 0.5 | 24.3 | 269 | > 10000 | 0.9 | 1.2 | 65.7 |
| C[C@]1(O)CC[C@@H](Nc2cc(Nc3ccnc(-c4cnn(S(=O)(=O)C5CC5)c4)n3)ncc2-n2ccc(C(F)(F)F)n2)CC1 [Example 167, (1s,4s)-4-((2-((2-(1-(Cyclopropylsulfonyl)-1H-pyrazol-4-yl)pyrimidin-4-yl)amino)-5-(3-(trifluoromethyl)-1H-pyrazol-1-yl)pyridin-4-yl)amino)-1-methylcyclohexan-1-ol] | 47.7 | 129 | 0.4 | 0.6 | 58.9 | – | – | – | – | – |
